Entries after “also recorded” stand apart in the source; their conditions may differ.

Test [1] relates to Erk. The test can be described thus: PDGF BB-induced MAP kinase activation in VSMC, immunoprecipitation analysis. It counts as cell-based. The following applies: human VSMC. The method, then: (§1) To further examine the signalling pathway mediating the effect of this phytoestrogen in VSMC, the effect of Cpd. 7 on mitogen-activated protein (MAP) kinases (Erk, JUNK, p38) was determined by immunoprecipitation analysis and on early growth response genes (Egr-1, Sp-1) by Western blotting. […] 7 in a dose-dependent manner, while JUNK and p38 activity were not affected by either PDGF BB or Cpd. 7, though the cells strongly expressed both proteins as well as Erk. Egr-1 or Sp-1 proteins were not altered by either PDGF-BB or Cpd. 7.

Test [2] deals with JUNK. Briefly: MAP kinase activity in VSMC, immunoprecipitation analysis. The format is cell-based. The following applies: human VSMC. As for the experimental part:
as §1

The subject of test [3] is p38. The description is as above. It counts as cell-based. As to conditions: human VSMC. As for the experimental part: as §1
For test [4], the system named is Egr-1. The test can be described thus: Early growth response gene protein in VSMC, Western blotting. The following applies: human VSMC. The format is cell-based. The method, then:
as §1

In test [5] the test system is Sp-1. The description is as above. It counts as cell-based. As to conditions: human VSMC. The method, then:
as §1

For test [6], the system named is rat isolated aortic rings. The test can be described thus: Protection against endothelium damage induced by oxidised LDL, acetylcholine dilatation (Protocol 3). The method, then:
Male Sprague-Dawley rats (250±50 g) were gassed with 80% CO2 and 20% O2 until killed. The thoracic aorta was excised and quickly placed in ice-cold Krebs modified solution composed of NaCl […], […] 4.7 mM, MgSO4 7H2O 1.17 mM, NaHCO3 25 mM, KH2PO4 1.18 mM, CaCl2 2.5 mM, glucose 11 mM and EDTA 0.03 mM. It was then trimmed of fat and connective tissue and cut into 2-3 mm wide rings. Each ring was mounted on two parallel stainless steel hooks in a single water-jacketed 3 ml organ bath containing modified Krebs solution maintained at 37° C. and bubbled with 95% O2 plus 5% CO2. The lower hook was attached to a movable support leg and the upper hook to an FTO3 force transducer (Grass Scientific Instruments, Mitutoyo, Japan) for isometric recordings. Changes in force were amplified (Quadbridge amplifier, Scientific Concepts Inc., Victoria, Australia) and recorded on a MacLab 8E data acquisition system (Adinstruments Pty Ltd., NSW, Australia) linked to an Apple computer (Apple Computer Inc, Cupertina, Calif.). Rings were set at an initial tension of 2 g and allowed to equilibrate for 30 minutes after which time they were re-set to 2 g tension before the commencement of each experimental protocol.
Full concentration response curves to phenylephrine were constructed from which the concentration giving a submaximal contraction of approximately 80% was selected (usually 0.3 μM). Tissues were then constricted with phenylephrine at the selected concentration and allowed to plateau. Full concentration dilatory curves were then constructed to acetylcholine. […]
Human plasma was obtained from the blood bank. […] The protein content of the final LDL fraction obtained was determined by the simplified protein assay method of Lowry. […]
Contractile responses are expressed in g tension (mean+standard error of the mean). Dilatory responses are expressed as a percentage of the contractile force generated by the pre-constricting agent used. […]

For test [7], the system named is E-selectin. Briefly: Inhibition of E-selectin expression in activated HUVEC. The format is cell-based, human. As to conditions: pre-incubated 2 or 18 hours prior to TNF stimulation; Cpd. 8 especially at 10 μg/ml, Cpd. 12 especially at 1 and 10 μg/ml. As for the experimental part: The ability of isoflavone compounds and derivatives to inhibit the expression of E-selectin was measured by the protocol set out in Litwin et al. (1997) and is incorporated herein by reference.
FIG. 18 provides comparative data on the ability of a number of isoflavone compounds to inhibit the expression of E-selectin conducted in accordance with the method of Litwin et al. The interaction of isoflavone metabolite Cpds. 8 and 12 on human umbilical vein endothelial cells, activated by […], was measured against the concentration of the compound. The cells were pre-incubated for either 2 or 18 hours prior to TNF stimulation. In comparison with a DMSO control, isoflavone Cpd. […] Isoflavone Cpd.

Test [8] relates to Human umbilical vein endothelial cells. Briefly: Endothelial cell migration (wound) assay. The format is cell-based. As to conditions: after 30 hours. The arrangement: dose or concentration left out as unconfirmed. As for the experimental part: Human umbilical vein endothelial cells between passage 1 and 3 were used. They were grown in gelatin coated flasks in medium 199 with Earle's Salts supplemented with 20% foetal calf serum, 25 mg/ml endothelial cell growth supplement and 25 mg/ml heparin.
5×10^5 cells per well in growth medium were plated onto fibronectin coated 6 well trays and grown to confluence. A wound was produced along the monolayer with the use of a cell scraper (Costar). The cells were then washed once and fresh medium with the test compounds was added. Defined points along the wound were marked using an ink condenser (Olympus microscopes) allowing the movement of cells to be visualized at constant points over the next 48 hours. Photographs were taken at relevant times and the degree of cell movement from the wound front assessed.

Consider `Oc1ccc(C2COc3cc(O)ccc3C2O)cc1` (stereo not shown) [Cpd. 7], for which, in test [1], the “PDGF BB-induced Erk activation” value is on record as “significantly inhibited by Cpd. 7 in a dose-dependent manner”. The JUNK activity result in test [2] is on record as “not affected”. Also, the p38 activity entry in test [3] is recorded as “not affected”. Besides, in test [4], the Egr-1 protein entry is “not altered”. For the same molecule, the Sp-1 protein entry in test [5] is “not altered”.
As to `Oc1ccc(C2COc3cc(O)ccc3C2O)cc1` (stereo not shown) [Cpd. 8], in test [6], the “potency of protective effect against ox-LDL relative to 17β-estradiol” value is on record as “at least 10 times”. For the same molecule, the “protective effect against ox-LDL inhibition of acetylcholine dilatation (in words)” value in test [6] (ox-LDL 0.3 mg protein/ml, β-estradiol 10 pg/ml, Cpd. 5 300 ng/ml, Cpd. 7 1 μg/ml, Cpd. 8 and 12 3 μg/ml) is reported as “diminished the inhibitory effect of ox-LDL; also recorded: significantly protects against endothelium damage by oxidized LDL”. For the same molecule, the “inhibition of E-selectin expression (in words)” value in test [7] was “very good inhibition of E-selectin expression”.
As for `Oc1ccc(C2=Cc3ccc(O)cc3OC2)cc1` [Cpd. 12], in test [8], the “endothelial cell migration towards the wound” value is reported as “markedly inhibited endothelial cell migration”. Also, the “inhibition of E-selectin expression (in words)” value in test [7] is reported as “excellent inhibition of E-selectin expression”.

The values are drawn from patent US20050119301A1, “Treatment of restenosis” (priority 2001, published 2005).
